Patent US10071963B2, “Polymorphic form of N-[2-(6-fluoro-1H-indol-3-yl)ethyl]-3-(2,2,3,3-tetrafluoropropoxy)benzylamine hydrochloride for the treatment of Alzheimer's disease” (H. Lundbeck A/S, priority 2014, dated 2018)

Experiments:
Type in all cases: physicochemical
[1] = Relative stability of polymorphic form I, II and III (competitive slurry in saturated solution); details: II and III in equal amounts, hydrochloride
Method: A saturated solution was prepared by heating 1.6 mL isopropyl acetate and 0.4 mL heptane to 70° C. and adding 50 mg of polymorphic form I of N-[2-(6-fluoro-1H-indol-3-yl)ethyl]-3-(2,2,3,3-tetrafluoropropoxy)benzylamine hydrochloride.
The supernatant was divided into two ampoules and kept at 60° C. and 70° C.
5 mg of polymorphic form I, II and III of N-[2-(6-fluoro-1H-indol-3-yl)ethyl]-3-(2,2,3,3-tetrafluoropropoxy)benzylamine hydrochloride was added to the 60° C. solution and left stirring at 60° C. for one and four days, respectively.
2.5 mg of polymorphic form I, II and III of N-[2-(6-fluoro-1H-indol-3-yl)ethyl]-3-(2,2,3,3-tetrafluoropropoxy)benzylamine hydrochloride was added to the 70° C. solution and left without stirring at 70° C. for three days.

[2] = Thermodynamic solubility in organic solvents; details: room temperature (about 23° C.); for Solubility: HPLC at 217 nm, hydrochloride
Method: Thermodynamic solubility of polymorphic form I and III of N-[2-(6-fluoro-1H-indol-3-yl)ethyl]-3-(2,2,3,3-tetrafluoropropoxy)benzylamine hydrochloride was measured by shaking an excess amount of the two polymorphic forms in the organic solvent in a sealed container at room temperature (about 23° C.). After equilibrium was attained, a sample was withdrawn, the solid filtered or centrifuged off and the clear filtrate/supernatant was assayed by HPLC at 217 nm. The precipitate was evaluated by XRPD to determine the polymorphic form.

[3] = Slurry experiments of polymorphic form I in solvents, solid evaluated by XRPD; details: no solvate formed, hydrochloride
Method: 6 mL of a solvent or solvent mixture is added into a glass vial together with polymorphic form I of N-[2-(6-fluoro-1H-indol-3-yl)ethyl]-3-(2,2,3,3-tetrafluoropropoxy)benzylamine hydrochloride. The added amount of compound is determined by the expected solubility in the relevant solvent or solvent system. If a clear solution is obtained anti-solvent and/or additional polymorphic form I of N-[2-(6-fluoro-1H-indol-3-yl)ethyl]-3-(2,2,3,3-tetrafluoropropoxy)benzylamine hydrochlorideis added until it is a suspension at the relevant temperature. The suspension is slurred for a prolonged period of time. The result of the slurry experiment is evaluated by filtering off the solid material and measuring XRPD on the isolated solid.
(§1) 6 mL of a toluene/acetonitrile (4:1) solvent mixture was added into a glass vial and 100 mg polymorphic form I of N-[2-(6-fluoro-1H-indol-3-yl)ethyl]-3-(2,2,3,3-tetrafluoropropoxy)benzylamine hydrochloride was added. The resulting suspension was heated to 50° C. A clear solution was obtained and another 50 mg was added. The suspension was stirred for one month at 50° C. Polymorphic form III of N-[2-(6-fluoro-1H-indol-3-yl)ethyl]-3-(2,2,3,3-tetrafluoropropoxy)benzylamine hydrochloride was obtained as evaluated by XRPD.
as §1, with “an acetone/heptane (1:4)” for “a toluene/acetonitrile (4:1)”, “C.” for “C. A clear solution was obtained and another 50 mg was added.”, “week” for “month”
6 mL of a methanol/toluene (1:9) solvent mixture was added into a glass vial and 100 mg polymorphic form I of N-[2-(6-fluoro-1H-indol-3-yl)ethyl]-3-(2,2,3,3-tetrafluoropropoxy)benzylamine hydrochloride was added. After stirring another 1 mL of the anti-solvent (toluene) was added +50 mg polymorphic form I of N-[2-(6-fluoro-1H-indol-3-yl)ethyl]-3-(2,2,3,3-tetrafluoropropoxy)benzylamine hydrochloride. […] To the 4 mL solutions another 1 mL of toluene was added and additional 50 mg polymorphic form I of N-[2-(6-fluoro-1H-indol-3-yl)ethyl]-3-(2,2,3,3-tetrafluoropropoxy)benzylamine hydrochloride. The resulting suspension was heated to 50° C. A clear solution was obtained and substance was added until a suspension was obtained. The suspension was stirred for one week at 50° C. Polymorphic form III of N-[2-(6-fluoro-1H-indol-3-yl)ethyl]-3-(2,2,3,3-tetrafluoropropoxy)benzylamine hydrochloride was obtained as evaluated by XRPD.
6 mL of isopropyl acetate was added into a glass vial and 50 mg polymorphic form I of N-[2-(6-fluoro-1H-indol-3-yl)ethyl]-3-(2,2,3,3-tetrafluoropropoxy)benzylamine hydrochloride was added. The resulting suspension was heated to 50° C. A clear solution was obtained and another 50 mg polymorphic form I of N-[2-(6-fluoro-1H-indol-3-yl)ethyl]-3-(2,2,3,3-tetrafluoropropoxy)benzylamine hydrochloride was added. Substance was added until a suspension was obtained at 50° C. The suspension was stirred for one week at 50° C. Polymorphic form III of N-[2-(6-fluoro-1H-indol-3-yl)ethyl]-3-(2,2,3,3-tetrafluoropropoxy)benzylamine hydrochloride was obtained as evaluated by XRPD.
6 mL of ethyl acetate was added into a glass vial and 150 mg polymorphic form I of N-[2-(6-fluoro-1H-indol-3-yl)ethyl]-3-(2,2,3,3-tetrafluoropropoxy)benzylamine hydrochloride was added. The resulting suspension was heated to 50° C. on a thermal stirrer plate. A clear solution was obtained and 50 mg polymorphic form I of N-[2-(6-fluoro-1H-indol-3-yl)ethyl]-3-(2,2,3,3-tetrafluoropropoxy)benzylamine hydrochloride was added. Polymorphic form I of N-[2-(6-fluoro-1H-indol-3-yl)ethyl]-3-(2,2,3,3-tetrafluoropropoxy)benzylamine hydrochloride was added until a suspension was obtained. The suspension was stirred for one month at 50° C. […]

[4] = 70° C., without stirring, three days
[5] = isopropyl acetate, 60° C., one and four days

Cl.Fc1ccc2c(CCNCc3cccc(OCC(F)(F)C(F)F)c3)c[nH]c2c1 [polymorphic form II, N-[2-(6-fluoro-1H-indol-3-yl)ethyl]-3-(2,2,3,3-tetrafluoropropoxy)benzylamine hydrochloride]
Relative thermodynamic stability of the polymorphic forms [1, 4]: thermodynamically stable
Relative thermodynamic stability of the polymorphic forms [1, 5]: thermodynamically stable

Cl.Fc1ccc2c(CCNCc3cccc(OCC(F)(F)C(F)F)c3)c[nH]c2c1 [polymorphic form III, N-[2-(6-fluoro-1H-indol-3-yl)ethyl]-3-(2,2,3,3-tetrafluoropropoxy)benzylamine hydrochloride]
Solubility ([2]; 2-butanol): 9.3 mg base/mL
Solubility ([2]; Isopropanol): 24.5 mg base/mL
Solubility ([2]; Isopropyl acetate): 3.0 mg base/mL
Relative solubility and thermodynamic stability ([2]; organic solvents, compared with polymorphic form I): slightly less soluble and therefore thermodynamically stable
Transformation on slurrying / relative solubility and thermodynamic stability ([3]; slurried at 5° C.): less soluble and therefore thermodynamically stable
Transformation on slurrying / relative solubility and thermodynamic stability ([3]; slurried at 25° C.): less soluble and therefore thermodynamically stable
Transformation on slurrying / relative solubility and thermodynamic stability ([3]; slurried at 50° C.): less soluble and therefore thermodynamically stable
Relative thermodynamic stability of the polymorphic forms [1, 4]: vanished
Relative thermodynamic stability of the polymorphic forms [1, 5]: transforming into polymorphic form II

Cl.Fc1ccc2c(CCNCc3cccc(OCC(F)(F)C(F)F)c3)c[nH]c2c1 [polymorphic form I, N-[2-(6-fluoro-1H-indol-3-yl)ethyl]-3-(2,2,3,3-tetrafluoropropoxy)benzylamine hydrochloride]
Solubility ([2]; 2-butanol): 10.5 mg base/mL
Solubility ([2]; Isopropanol): 25.2 mg base/mL
Solubility ([2]; Isopropyl acetate): 3.4 mg base/mL
Transformation on slurrying / relative solubility and thermodynamic stability ([3]; slurried at 5° C.): transformed into polymorphic form III
Transformation on slurrying / relative solubility and thermodynamic stability ([3]; slurried at 25° C.): transformed into polymorphic form III
Transformation on slurrying / relative solubility and thermodynamic stability ([3]; slurried at 50° C.): transformed into polymorphic form III
Relative thermodynamic stability of the polymorphic forms [1, 5]: less stable than polymorphic form III
